Patent US12582706B2, “Tolerogenic antigen presenting cells” (Cell4Cure AB, priority 2019, dated 2026)

What was measured:
DCs [1] = assay: DC expression of CD103 (flow cytometry); assay type: cell-based, human; details: Example 13, FIG. 13(E); compared to control DCs
Description: (§1) CD14^+ monocytes were cultured at 1.25×10^6 cells/mi for 7 days in GMP DC Medium (CellGenix, Freiburg, Germany) containing HEPES, GlutaMAX and Penicillin-Streptomycin solution (Thermo Fisher, Waltham, MA) in the presence of granulocyte-macrophage colony-stimulating factor (GM-CSF; 100 ng/ml; PeproTech, London, UK) and interleukin-4 (IL-4; 100 ng/ml; PeproTech). Cells were replenished on day 3 with fresh medium and cytokines. […]
(§2) Cell surface expression was investigated using the following fluorescently labeled antibodies: CD11c (B-Ly6), CD83 (HB15e), CD86 (BU63), ILT3 (ZM4.1), CD141 (M80), GARP (7611), CD103 (B-Ly7), MERTK (590H11G1E3), BTLA (J168-540), CD49b (P1E6-05), HLA-G (87G), LAP (FNLAP), from BD Biosciences (Franklin Lakes, NJ), BioLegend (San Diego, CA) and Thermo Fisher. DCs were washed and resuspended in staining buffer (phosphate-buffered saline supplemented with 0.5% BSA and 2 mM EDTA) and incubated with antibody for 20 min followed by washing before acquisition on a MACSQuant 10 flow cytometer (Miltenyi Biotec) and analyzed using FlowJo software (BD Biosciences). […]

DCs [2] = assay: DC expression of CD83 (flow cytometry); assay type: cell-based, human; details: Example 13, FIG. 13(A); C1 10 nM, TGFbeta 10 ng/ml, RA 2 uM; compared to control DCs
Description: as §1, §2

CD4^+ T cells [3] = assay: Capacity of DCs to induce CD25^hiFoxp3^+ Tregs in time-extended MLR; assay type: cell-based, human; details: Example 13, FIG. 13(H); compared to control DCs
Description: (§3) CD14^+ monocytes were cultured at 1.25×10^6 cells/mi for 7 days in GMP DC Medium (CellGenix, Freiburg, Germany) containing HEPES, GlutaMAX and Penicillin-Streptomycin solution (Thermo Fisher, Waltham, MA) in the presence of granulocyte-macrophage colony-stimulating factor (GM-CSF; 100 ng/ml; PeproTech, London, UK) and interleukin-4 (IL-4; 100 ng/ml; PeproTech). Cells were replenished on day 3 with fresh medium and cytokines. Control DCs were differentiated in GM-CSF and IL-4 without addition of any further compounds and optionally further were treated with lipopolysaccharide (LPS; 0.5 ug/ml; Sigma-Aldrich, Saint Louise, MO) or a pro-inflammatory cytokine cocktail consisting of TNFalpha (10 ng/ml; PeproTech), IL-1 beta (10 ng/ml; PeproTech), and prostaglandin E2 (PGE2; 1 ug/ml; Sigma) on day 6 to generate stimulated immunogenic DCs. Tolerogenic DCs (tolDCs) were generated by treatment with various tolerogenic compounds: AhR agonist “C1” (C1; 20 nM; IMA-06201; Immunahr A B, Lund, Sweden) on days 0 and 3, TGFbeta1 (10 or 20 ng/ml; PeproTech) on day 3, and retinoic acid (2 uM; Sigma-Aldrich) on day 6. Control tolDC for comparison were established by treatment with Dexamethasone (Dex; 100 nM; Sigma-Aldrich) and Vitamin D3 (VitD3; 100 nM, StemCell Technologies) on day 3. Phenotypic stability of TolDCs was investigated by addition of LPS (0.5 ug/ml) or a pro-inflammatory cytokine cocktail consisting of TNFalpha (10 ng/ml), IL-1beta (10 ng/ml), PGE2 (1 ug/ml), and for Example 24 also IL-6 (10 ng/ml), for the last 24 hours of culture. On day 7, DCs were harvested and washed extensively before phenotyping and functional assays were performed.
In order to analyse the T cell stimulatory capacity of the generated DC populations, allogeneic MLRs were performed. DC/T cell cultures were carried out in complete medium: RPMI-1640 (Thermo Fisher) containing fetal bovine serum (FBS; 10%; Thermo Fisher), HEPES, GlutaMAX and Penicillin-Streptomycin solution. […] Proliferation was determined by incorporation of ^3H-thymidine for the last 18 hours of culture. […]

CD4^+ T cells [4] = assay: Capacity of DCs to induce T cell proliferation in allogeneic MLR (3H-thymidine); assay type: cell-based, human; details: for induction of T cell proliferation (CPM): Example 13, FIG. 13(G), compared to control DCs; for effect on the tolerogenic effect of RA: Example 13, summary
Description: as §3
In order to analyse the T cell stimulatory capacity of the generated DC populations, allogeneic MLRs were performed. DC/T cell cultures were carried out in complete medium: RPMI-1640 (Thermo Fisher) containing fetal bovine serum (FBS; 10%; Thermo Fisher), HEPES, GlutaMAX and Penicillin-Streptomycin solution. T cells (10^5 cells/well) were cultured with DCs at a T cell: DC ratio of 10:1 for 5-7 days. Proliferation was determined by incorporation of ^3H-thymidine for the last 18 hours of culture. For determination of CD4^+CD49b^+LAG3^+ Tr1 cells, cells were phenotyped as described below. For determination of CD25^hiFoxp3^+ Treg induction, the T cells from the MLR cultures were rested for additionally 7 days in complete medium containing IL-2 (20 IU/ml; PeproTech) and then subjected to phenotyping as described below.
Control DCs were differentiated from CD14^+ monocytes by culturing in GM-CSF and IL-4 for 7 days. Control DCs were either unstimulated or stimulated with LPS which was added on day 6 to generate immunogenic control DCs. […] TolDCs for comparison were established by treatment with Dex at 100 nM and VitD3 at 100 nM on day 3. On day 6, some of the DCs were treated with LPS (FIG. 5 (A); black bars) or a pro-inflammatory cytokine cocktail consisting of TNFalpha, IL-1beta and PGE2 (FIG. 5 (B); black bars) to test for phenotypical stability under various conditions. All cells were harvested on day 7 and cocultures with CD4^+ T cells were setup in an MLR setting at a T cell:DC ratio of 10:1. At the end of the 7-day cultures, proliferation of T cells was determined by ^3H-thymidine incorporation.
Various compounds were tested for their capacity to induce a tolerogenic phenotype in DCs. […] AhR agonist C1 (AhR ag) at 10 nM on days 0 and 3, TGFbeta at 10 ng/ml on day 3, and RA at 2 uM on day 6. […]

DCs [5] = assay: DC expression of CD86 (flow cytometry); assay type: cell-based, human
Description: as §1, §2

T cells = details: Bakdash et al, 2015; cited from earlier work
DCs [6] = assay: DC frequency of CD141^+GARP^+ cells (flow cytometry); assay type: cell-based, human; details: Example 13, FIG. 13(F); compared to control DCs
Description: as §1, §2

DCs [7] = assay: DC expression of ILT3 (flow cytometry); assay type: cell-based, human; details: Example 13, FIG. 13(C); compared to control DCs
Description: as §1, §2

human DCs = details: cited from earlier work
DCs [8] = assay: DC tolerogenic index ILT3/CD86 (MFI ratio); assay type: cell-based, human; details: Example 13, FIG. 13(D); compared to control DCs
From the text: The optimal tolDCs should express both low levels of co-stimulatory molecules and high levels of tolerogenic molecules. Thus, to take into account the combined effect of this, the ratio between the expression levels of representative tolerogenic and co-stimulatory molecules could be depicted as a proxy for the tolerogenic capacity of a certain subset of tolDCs. FIGS. 4 (A) and (B) show such tolerogenic index, defined as the ILT3/CD86 expression (MFI) ratio, on DCs cultured under various conditions in the absence (FIG. 4 (A); grey bars) or presence of LPS (FIG. 4 (B); black bars).

[9] = during DC differentiation and maturation

Compound | CD103 expression (MFI) on DCs (DCs [1]) | CD83 expression (MFI) on DCs (DCs [2]) | induction of Tregs (CD4^+CD25^+Foxp3^+) (CD4^+ T cells [3]) | induction of T cell proliferation (CPM) (CD4^+ T cells [4]) | effect on the tolerogenic effect of RA (CD4^+ T cells [4]) | CD86 expression (MFI) on DCs (DCs [5]; Example 13, FIG. 13(B), compared to control DCs) | differentiation of Treg cells (T cells) | gut-homing specificity in T cells (T cells) | frequency of GARP^+CD141^+ cells (DCs [6]) | CD86 expression (MFI) on DCs (DCs [5]; FIG. 2(B), whether or not stimulated with LPS, compared to corresponding control DCs) | ILT3 expression (MFI) on DCs (DCs [7]) | differentiation of naïve T cells into Treg cells by treated DCs (human DCs; Jurado-Manzano et al, 2017) | expression of the enzyme IDO (human DCs; [9]) | production of pro-inflammatory cytokines (human DCs; [9]) | tolerogenic ratio (ILT3/CD86) (DCs [8])
CCN(C(=O)c1c(O)c2c(Cl)cccc2n(C)c1=O)c1ccccc1 [AhR agonist, N-ethyl-N-phenyl-5-chloro-1,2-dihydro-4-hydroxy-1-methyl-2-oxo-quinoline-3-carboxamide] | higher expression of CD103 | lower expression | slightly more Tregs | slightly more T cell proliferation | strengthens the tolerogenic effect of RA | lower expression | – | – | – | – | – | – | – | – | –
CC1=C(/C=C/C(C)=C/C=C/C(C)=C/C(=O)O)C(C)(C)CCC1 [RA, all-trans retinoic acid] | – | – | more Tregs | less T cell proliferation | – | – | enhance the differentiation of Foxp3^+ inducible as well as IL-10 producing Treg cells | induce gut-homing specificity in T cells | higher frequency of GARP^+CD141^+ cells | no resistance to upregulate CD86 | higher expression of ILT3 | – | – | – | –
O=Cc1c2c(cc3c1=Nc1ccccc1-3)=Nc1ccccc1-2 [FICZ, 6-formylindolo[3,2-b]carbazole] | – | – | – | – | – | – | – | – | – | – | – | able to induce the differentiation | increased expression of the enzyme IDO | reduced production of pro-inflammatory cytokines such as IL-6 and TNF-alpha | –
TGFbeta: transforming growth factor beta; TGFbeta1 (PeproTech) used in the examples | slightly higher | – | more Tregs | less T cell proliferation | strengthens the tolerogenic effect of RA | – | – | – | – | – | – | – | – | – | slightly higher
